Columns and labels:
A2780 [1] = assay: Antiproliferative activity against human A2780 cells after 96 hrs by celltiter 96 assay; type: functional, cell-based; conditions: A2780, 96 h
Cytochrome P450 3A4 [2] = biological target: T1, Cytochrome P450 3A4 (Homo sapiens, UniProt P08684); assay: Inhibition of recombinant CYP3A4 after 30 mins by fluorescence assay; type: ADME
Histone deacetylase 3 = Histone deacetylase 3 (Homo sapiens, UniProt O15379)
Description: Competitive inhibition of HDAC3 using KI-104 as substrate by fluorescence assay

Cytochrome P450 3A4 [3] = biological target: T1, Cytochrome P450 3A4; assay: Inhibition of CYP3A4 in human liver microsomes
Mus musculus [4] = assay: Toxicity in po dosed athymic nu/nu Harlan mouse with xenografted human HCT116 cells assessed as treatment-related mortality at 200 mg/kg,; type: organism-based, HCT-116; parameters: dose 200 mg/kg, route oral; conditions: in vivo
[5] = Toxicity in po dosed athymic nu/nu Harlan mouse with xenografted human HCT116 cells assessed as maximum tolerated administered qd for 21 days; type: organism-based, HCT-116; conditions: in vivo
HCT-116 [6] = assay: Antiproliferative activity against human HCT116 cells after 96 hrs by celltiter 96 assay; type: functional, cell-based; conditions: HCT-116, 96 h
Cytochrome P450 2D6 = Cytochrome P450 2D6 (Homo sapiens, UniProt P10635); assay: Inhibition of recombinant CYP2D6 after 30 mins by fluorescence assay; type: ADME
Cytochrome P450 2D6, sequence (P10635 whole entry): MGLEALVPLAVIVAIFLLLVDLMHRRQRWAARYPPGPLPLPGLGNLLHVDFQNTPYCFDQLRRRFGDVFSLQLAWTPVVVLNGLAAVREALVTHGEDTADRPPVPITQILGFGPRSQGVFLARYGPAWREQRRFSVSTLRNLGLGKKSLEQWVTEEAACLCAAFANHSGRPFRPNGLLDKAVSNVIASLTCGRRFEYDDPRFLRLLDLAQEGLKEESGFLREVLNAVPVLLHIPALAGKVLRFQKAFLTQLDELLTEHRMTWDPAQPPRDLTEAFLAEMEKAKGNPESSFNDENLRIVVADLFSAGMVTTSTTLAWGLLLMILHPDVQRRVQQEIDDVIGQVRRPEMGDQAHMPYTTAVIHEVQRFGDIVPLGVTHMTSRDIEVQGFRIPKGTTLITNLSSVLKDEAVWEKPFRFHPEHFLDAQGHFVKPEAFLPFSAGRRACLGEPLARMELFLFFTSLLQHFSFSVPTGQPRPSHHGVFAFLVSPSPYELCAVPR

Histone deacetylase 1 = Histone deacetylase 1 (Homo sapiens, UniProt Q13547)
Histone deacetylase 1, sequence (Q13547 whole entry): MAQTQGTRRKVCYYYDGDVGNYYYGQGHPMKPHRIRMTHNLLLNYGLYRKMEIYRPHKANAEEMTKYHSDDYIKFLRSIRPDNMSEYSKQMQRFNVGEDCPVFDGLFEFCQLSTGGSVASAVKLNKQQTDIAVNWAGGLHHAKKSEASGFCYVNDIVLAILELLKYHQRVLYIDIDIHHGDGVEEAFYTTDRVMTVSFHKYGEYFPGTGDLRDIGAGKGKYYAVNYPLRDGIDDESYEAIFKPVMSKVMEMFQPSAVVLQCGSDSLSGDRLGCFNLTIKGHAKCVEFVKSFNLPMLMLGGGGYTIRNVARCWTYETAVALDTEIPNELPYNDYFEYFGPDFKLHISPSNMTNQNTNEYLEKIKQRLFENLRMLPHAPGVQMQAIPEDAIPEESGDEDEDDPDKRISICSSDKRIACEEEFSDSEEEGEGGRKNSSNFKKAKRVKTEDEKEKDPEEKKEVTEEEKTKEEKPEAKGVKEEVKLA
Description: Inhibition of full length recombinant HDAC1 using Fluor de Lys as substrate by fluorescence assay

PC-3 [7] = assay: Antiproliferative activity against human PC3 cells after 96 hrs by celltiter 96 assay; type: functional, cell-based; conditions: PC-3, 96 h
[8] = biological target: T2, Polyamine deacetylase HDAC10 (Homo sapiens, UniProt Q969S8)
T2 sequence (Q969S8 whole entry): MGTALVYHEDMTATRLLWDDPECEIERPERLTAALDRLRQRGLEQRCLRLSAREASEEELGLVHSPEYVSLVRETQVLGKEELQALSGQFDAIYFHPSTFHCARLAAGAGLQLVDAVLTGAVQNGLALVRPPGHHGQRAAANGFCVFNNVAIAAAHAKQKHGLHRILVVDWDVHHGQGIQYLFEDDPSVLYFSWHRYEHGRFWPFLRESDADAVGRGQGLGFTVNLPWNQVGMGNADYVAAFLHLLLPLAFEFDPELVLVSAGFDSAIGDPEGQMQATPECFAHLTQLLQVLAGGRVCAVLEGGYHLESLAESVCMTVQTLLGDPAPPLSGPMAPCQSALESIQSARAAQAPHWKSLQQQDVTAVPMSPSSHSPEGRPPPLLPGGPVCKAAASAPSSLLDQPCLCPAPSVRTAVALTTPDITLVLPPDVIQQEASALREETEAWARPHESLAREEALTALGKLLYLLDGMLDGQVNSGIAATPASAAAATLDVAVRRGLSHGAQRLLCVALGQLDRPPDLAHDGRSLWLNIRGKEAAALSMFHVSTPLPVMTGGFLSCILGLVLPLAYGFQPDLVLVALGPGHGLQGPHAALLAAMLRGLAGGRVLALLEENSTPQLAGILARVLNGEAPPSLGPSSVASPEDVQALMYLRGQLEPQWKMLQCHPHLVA
Description: Competitive inhibition of HDAC10 using KI-104 as substrate by fluorescence assay

Histone deacetylase 8 = biological target: T3, Histone deacetylase 8 (Homo sapiens, UniProt Q9BY41)
T3 sequence (Q9BY41 whole entry): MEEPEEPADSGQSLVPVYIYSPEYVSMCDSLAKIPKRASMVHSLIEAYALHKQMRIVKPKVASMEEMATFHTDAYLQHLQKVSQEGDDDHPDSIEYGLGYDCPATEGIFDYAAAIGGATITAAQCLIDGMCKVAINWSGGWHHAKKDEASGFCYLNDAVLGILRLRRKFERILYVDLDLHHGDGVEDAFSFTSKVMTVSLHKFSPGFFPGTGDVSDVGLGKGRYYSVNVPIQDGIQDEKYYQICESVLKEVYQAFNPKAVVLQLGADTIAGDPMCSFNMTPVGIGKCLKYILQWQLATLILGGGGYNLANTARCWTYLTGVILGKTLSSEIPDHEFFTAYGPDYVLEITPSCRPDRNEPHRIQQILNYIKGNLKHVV
Description: Competitive inhibition of HDAC8 using KI-104 as substrate by fluorescence assay

Histone deacetylase 9 = Histone deacetylase 9 (Homo sapiens, UniProt Q9UKV0)
Histone deacetylase 9, sequence (Q9UKV0 whole entry): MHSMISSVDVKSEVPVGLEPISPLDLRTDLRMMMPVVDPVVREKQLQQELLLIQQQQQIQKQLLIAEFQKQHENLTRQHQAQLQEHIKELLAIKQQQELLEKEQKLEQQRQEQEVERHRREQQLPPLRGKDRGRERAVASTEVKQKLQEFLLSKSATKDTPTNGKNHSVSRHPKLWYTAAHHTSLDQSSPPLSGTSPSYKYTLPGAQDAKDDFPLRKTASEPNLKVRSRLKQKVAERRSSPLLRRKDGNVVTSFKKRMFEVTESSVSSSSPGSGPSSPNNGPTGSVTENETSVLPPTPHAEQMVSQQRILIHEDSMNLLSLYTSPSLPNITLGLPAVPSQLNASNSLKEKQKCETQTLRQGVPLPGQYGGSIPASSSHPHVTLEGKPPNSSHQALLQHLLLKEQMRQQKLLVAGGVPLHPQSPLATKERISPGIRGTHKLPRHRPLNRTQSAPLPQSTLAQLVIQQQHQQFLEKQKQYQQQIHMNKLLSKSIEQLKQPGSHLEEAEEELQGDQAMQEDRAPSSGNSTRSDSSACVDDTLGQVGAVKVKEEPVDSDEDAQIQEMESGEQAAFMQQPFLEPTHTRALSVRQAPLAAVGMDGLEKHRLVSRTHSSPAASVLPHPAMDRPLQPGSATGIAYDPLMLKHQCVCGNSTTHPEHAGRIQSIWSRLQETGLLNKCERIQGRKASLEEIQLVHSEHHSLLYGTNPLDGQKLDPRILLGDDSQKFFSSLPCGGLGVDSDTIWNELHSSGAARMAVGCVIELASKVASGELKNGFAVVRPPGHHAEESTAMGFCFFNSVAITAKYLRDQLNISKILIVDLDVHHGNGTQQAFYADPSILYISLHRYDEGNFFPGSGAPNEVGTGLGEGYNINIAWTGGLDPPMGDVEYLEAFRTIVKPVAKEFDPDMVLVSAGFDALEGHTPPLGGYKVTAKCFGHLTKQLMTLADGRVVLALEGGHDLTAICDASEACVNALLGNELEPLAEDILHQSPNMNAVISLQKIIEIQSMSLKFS
Description: Competitive inhibition of HDAC9 using KI-104 as substrate by fluorescence assay

[9] = Time required for attaining concentration above IC50 of HCT116 in tumor of nude BALB/c mouse xenografted with HCT116 cells at 100 mg/kg, po administered as single dose; type: ADME, organism-based, Neoplasm, HCT-116; parameters: dose 100 mg/kg, route oral; conditions: in vivo
[10] = Tmax in Wistar rat at 10 mg/kg, po; type: ADME, organism-based; parameters: dose 10 mg/kg, route oral; conditions: in vivo
Mus musculus [11] = assay: Toxicity in nude BALB/c mouse xenografted with human PC3 cells assessed as maximum body weight loss at 50 mg/kg, po QD for 21 days measured on day 17; type: organism-based, PC-3; parameters: dose 50 mg/kg, route oral; conditions: in vivo, 504 h
Ramos = assay: Antitumor activity against human Ramos cells xenografted in nude BALB/c mouse assessed as tumor growth inhibition at 50 mg/kg, po qd for 21 days measured on day 15; type: functional; conditions: read-out: TGI
[12] = Terminal half life in Beagle dog at 10 mg/kg, po; type: ADME, organism-based, Canis lupus familiaris; parameters: dose 10 mg/kg, route oral; conditions: in vivo, read-out: beta t1/2 (converted)
[13] = Time required for attaining concentration above IC50 of HDAC1 in tumor of nude BALB/c mouse xenografted with HCT116 cells at 100 mg/kg, po administered as single dose; type: ADME, organism-based, Neoplasm, HCT-116; parameters: dose 100 mg/kg, route oral; conditions: in vivo
[14] = Oral bioavailability in Beagle dog at 10 mg/kg; type: ADME, organism-based, Canis lupus familiaris; conditions: in vivo
[15] = Solubility of the compound in water at pH 2.2; type: physicochemical
HCT-116 [16] = assay: Antitumor activity against human HCT116 cells xenografted in nude BALB/c mouse assessed as tumor growth inhibition at 100 mg/kg, po qd for 21 days measured on day 18; type: functional; conditions: read-out: TGI
[17] = Kinetic solubility of the compound at pH 7 with […] DMSO; type: physicochemical; conditions: buffer, read-out: Kinetic_solubility
Mus musculus [18] = assay: Toxicity in nude BALB/c mouse xenografted with human HCT116 cells assessed as mouse survival at 50 mg/kg, po QD for 21 days measured on day 22; type: organism-based, HCT-116; parameters: dose 50 mg/kg, route oral; conditions: in vivo, 504 h
Mus musculus [19] = assay: Toxicity in nude BALB/c mouse xenografted with human A2780 cells assessed as maximum body weight loss at 100 mg/kg, po QD for 21 days measured on day 20; type: organism-based; parameters: dose 100 mg/kg, route oral; conditions: in vivo, 504 h
Mus musculus [20] = assay: Toxicity in nude BALB/c mouse xenografted with human PC3 cells assessed as mortality at 50 mg/kg, po QD for 21 days measured on day 22; type: organism-based, PC-3; parameters: dose 50 mg/kg, route oral; conditions: in vivo, 504 h
[21] = Apparent oral clearance in Wistar rat at 10 mg/kg, po; type: ADME, organism-based; parameters: dose 10 mg/kg, route oral; conditions: in vivo
[22] = Half life in mouse liver microsomes; type: ADME, Microsome; conditions: liver microsomes
Mus musculus [23] = assay: Toxicity in nude BALB/c mouse xenografted with human HCT116 cells assessed as mouse survival at 200 mg/kg, po QD for 21 days measured on day 22; type: organism-based, HCT-116; parameters: dose 200 mg/kg, route oral; conditions: in vivo, 504 h
PC-3 [24] = assay: Antiproliferative activity against human PC3 cells; type: functional, cell-based
[25] = Oral bioavailability in nude BALB/c mouse at 50 mg/kg; type: ADME, organism-based; conditions: in vivo
A2780 [26] = assay: Antitumor activity against human A2780 cells xenografted in nude BALB/c mouse assessed as tumor growth inhibition at 100 mg/kg, po qd for 21 days measured on day 9; type: functional; conditions: read-out: TGI
[27] = Oral bioavailability in Wistar rat at 10 mg/kg; type: ADME, organism-based; conditions: in vivo

T1 sequence (P08684 whole entry): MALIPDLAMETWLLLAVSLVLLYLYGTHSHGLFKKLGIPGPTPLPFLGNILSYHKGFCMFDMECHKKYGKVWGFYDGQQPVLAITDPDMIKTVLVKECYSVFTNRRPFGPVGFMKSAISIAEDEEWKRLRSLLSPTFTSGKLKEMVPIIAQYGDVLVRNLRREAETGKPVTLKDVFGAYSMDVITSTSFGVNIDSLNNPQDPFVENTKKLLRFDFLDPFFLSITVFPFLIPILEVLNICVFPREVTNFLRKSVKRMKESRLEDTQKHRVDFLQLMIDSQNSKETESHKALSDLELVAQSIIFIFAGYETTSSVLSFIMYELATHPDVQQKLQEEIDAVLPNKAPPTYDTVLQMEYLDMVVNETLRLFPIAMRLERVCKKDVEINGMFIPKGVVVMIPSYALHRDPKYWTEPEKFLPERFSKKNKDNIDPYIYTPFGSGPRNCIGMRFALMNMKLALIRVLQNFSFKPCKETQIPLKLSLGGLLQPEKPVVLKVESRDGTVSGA
Histone deacetylase 3, sequence (O15379 whole entry): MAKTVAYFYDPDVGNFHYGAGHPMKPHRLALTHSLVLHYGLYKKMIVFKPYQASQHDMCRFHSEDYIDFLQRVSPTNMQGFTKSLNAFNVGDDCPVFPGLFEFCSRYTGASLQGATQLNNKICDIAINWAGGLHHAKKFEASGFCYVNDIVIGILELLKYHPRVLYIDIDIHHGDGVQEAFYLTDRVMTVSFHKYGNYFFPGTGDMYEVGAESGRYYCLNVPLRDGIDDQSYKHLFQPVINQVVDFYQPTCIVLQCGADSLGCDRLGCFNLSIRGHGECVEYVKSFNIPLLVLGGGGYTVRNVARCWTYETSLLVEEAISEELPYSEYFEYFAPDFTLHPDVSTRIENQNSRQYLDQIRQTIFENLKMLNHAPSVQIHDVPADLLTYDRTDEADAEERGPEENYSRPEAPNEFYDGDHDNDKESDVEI

`CCCCCCc1nc2cc(/C=C/C(=O)NO)ccc2n1CCN(C)C` gave an IC50 (A2780 [1]) of 0.23 µM, an IC50 (Cytochrome P450 3A4 [2]) of 0.33 µM and a Ki (Histone deacetylase 3) of 0.02 µM. For the same compound, the IC50 (Cytochrome P450 3A4 [3]) was over 25 µM, the Activity (Mus musculus [4]) was “Toxic” and the MTD at 504 h [5] was 200 mg/kg. For the same compound, the IC50 (HCT-116 [6]) was 0.33 µM, the IC50 (Cytochrome P450 2D6) was 3.17 µM and the IC50 (Histone deacetylase 1) was 0.028 µM. It also gave an IC50 (PC-3 [7]) of 0.25 µM, a Ki [8] of 0.013 µM and a Ki (Histone deacetylase 8) of 0.136 µM. For the same compound, the Ki (Histone deacetylase 9) was 0.011 µM.

In the case of `CCCCc1nc2cc(/C=C/C(=O)NO)ccc2n1CCN(CC)CC.Cl.Cl`, the Time [9] is reported as 7.1 h, the IC50 (A2780 [1]) is reported as 0.48 µM and the Tmax [10] is reported as 14.4 min. It also gave an Activity (Mus musculus [11]) of 7.7%, an inhibition in vivo at 50 mg/kg (Ramos) of 75% and a half-life [12] of 247 min. It also gave a Time [13] of 16 h, a bioavailability [14] of 65% and a solubility [15] of over 100 mg/mL. The inhibition in vivo at 100 mg/kg (HCT-116 [16]) was 98%, the MTD at 504 h [5] was 50 mg/kg and the solubility kinetic [17] was over 200 µM. The IC50 (HCT-116 [6]) was 0.48 µM, the Activity (Mus musculus [18]) was “Non-toxic” and the IC50 (Cytochrome P450 2D6) was over 10 µM. For the same compound, the Activity (Mus musculus [19]) was 20%, the IC50 (PC-3 [7]) was 0.34 µM and the Activity (Mus musculus [20]) was “Non-toxic”. For the same compound, the Ki [8] was 0.023 µM, the CL/F [21] was 153 L/h/kg and the half-life [22] was 27 min. The Activity (Mus musculus [23]) was “Toxic”, the IC50 (PC-3 [24]) was 0.34 µM and the Ki (Histone deacetylase 9) was 0.024 µM. The bioavailability [25] was 34%, the inhibition in vivo at 100 mg/kg (A2780 [26]) was 63% and the bioavailability [27] was 3.1%.

With `CN(C)CC(C)(C)Cn1c(CC(C)(C)C)nc2cc(/C=C/C(=O)NO)ccc21` the IC50 (A2780 [1]) was 0.44 µM, the IC50 (Cytochrome P450 3A4 [2]) was 2.28 µM and the bioavailability [14] was 110%. The Ki (Histone deacetylase 3) was 0.02 µM, the IC50 (Cytochrome P450 3A4 [3]) was over 25 µM and the IC50 (HCT-116 [6]) was 0.8 µM. For the same compound, the IC50 (Cytochrome P450 2D6) was over 10 µM, the IC50 (Histone deacetylase 1) was 0.046 µM and the IC50 (PC-3 [7]) was 0.5 µM. For the same compound, the Ki [8] was 0.034 µM, the Ki (Histone deacetylase 8) was 0.065 µM and the Ki (Histone deacetylase 9) was 0.011 µM. It also gave a bioavailability [25] of 51% and a bioavailability [27] of 4%.
